Paper PMC12575728, “Galactose-modified small molecule modulator targets RORα to enhance circadian rhythm and alleviate periodontitis-associated alveolar bone loss” (Bone Research, 2025)
Read-outs that look alike come from different tables or passages of the source.

Assays:
[1] = system: Per2-dLuc and Bmal1-dLuc U2OS cells; assay: Real-time bioluminescence monitoring of Per2-dLuc and Bmal1-dLuc U2OS cells; assay type: cell-based, human; conditions: for dose dependence of the enhancing effect on the amplitude of BMAL1: Bmal1-dLuc U2OS cells, 1-10 μM; for fluctuation degree (amplitude) of bioluminescence intensity / period or phase of the bioluminescence / overall bioluminescence levels: Bmal1-dLuc and Per2-dLuc U2OS cells, 2 μmol/L; for overall bioluminescence levels: vs DMSO
Procedure: Two clonal circadian reporter cell lines, Bmal1-dLuc and Per2-dLuc, were established and used in this study.[36] These two cell lines display robust cellular rhythmicity with near anti-phasic oscillation of bioluminescence expression. The lentivirus preparation, transduction of U2OS cells and selection of the knockout candidates with puromycin (at […] concentration) were performed using a previously published protoco.[37] LumiCycle (Actimetrics, Inc., Evanston, IL) detect for U2OS cells stably expressing Bmal1-dLuc and Per2-dLuc cells were seeded on an opaque 24-well plate. When the cells are full, which were treated with dexamethasone (DEX) (100 nmol/L final) for 2 h for resetting, 2 h later, the media of cells were replaced with bioluminescence recording media having DMEM culture medium (Gibco 21063029, 500 mL), 70 mL 12% FBS. Luciferin (0.1 mmol/L final) was added fresh to the bioluminescence media. Molecules at determined concentrations were supplied to the recording media (final DMSO concentration is 0.1%).

[2] = Body weight changes in mice after IP administration; assay type: in vivo; conditions: 10 and 50 mg/kg, 7 days
Procedure: After U2OS cells were treated with various concentrations (0 ~ 50 μM) of SR1078,
Body weight changes (%) in […]

[3] = Pharmacokinetic studies in mice (IP and IV); assay type: in vivo; conditions: for AUC / Cmax / Tmax / half-life / concentration at 8 h / bioavailability / MRT inf: male, C57BL/6 J, mouse, plasma; for concentration at 8 h: read-out: mean plasma concentration 8 h after injection; for bioavailability: intraperitoneal, IP versus IV
RORγ = biological target: T1, RORγ (Homo sapiens, UniProt P51449); assay: Luciferase reporter assay (G6Pase or FGF21 promoter) in HEK293T cells cotransfected with RORγ; assay type: cell-based; conditions: 5 μmol/L; for luminescence intensity of G6Pase and FGF21 reporter genes: compared to DMSO
T1 construct: expressed in transfected cells; host or cells: HEK293T
T1 sequence (P51449 1-518): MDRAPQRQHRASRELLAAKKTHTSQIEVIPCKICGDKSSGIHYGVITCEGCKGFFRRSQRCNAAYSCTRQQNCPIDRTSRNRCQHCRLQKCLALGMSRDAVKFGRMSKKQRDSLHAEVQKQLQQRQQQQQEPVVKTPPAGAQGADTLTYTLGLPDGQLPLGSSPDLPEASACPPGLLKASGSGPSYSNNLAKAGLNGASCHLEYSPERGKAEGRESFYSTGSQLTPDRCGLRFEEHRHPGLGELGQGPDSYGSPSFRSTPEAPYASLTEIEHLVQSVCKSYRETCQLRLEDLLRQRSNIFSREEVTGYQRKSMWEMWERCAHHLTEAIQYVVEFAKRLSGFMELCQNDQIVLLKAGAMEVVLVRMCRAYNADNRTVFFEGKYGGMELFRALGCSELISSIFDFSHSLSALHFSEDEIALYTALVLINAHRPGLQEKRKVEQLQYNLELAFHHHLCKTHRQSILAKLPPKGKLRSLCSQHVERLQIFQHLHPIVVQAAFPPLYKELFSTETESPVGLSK
Text: HEK293T cells were transfected with Lipofectamine 8000 (ThermoFisher) strictly following the manufacturer’s instructions. Cotransfected HEK293T cells with RORα or RORγ plasmid and a reporter consisting of the G6Pase or FGF21 promoters upstream of a luciferase reporter gene. […] The Lumicycle instrument detects luminescence and records the numerical value.

RORα = biological target: T2, RORα (Homo sapiens, UniProt P35398); assay: G6Pase and FGF21 mRNA in HEK293T cells after RORα knockdown by siRNA; assay type: cell-based; conditions: 5 μmol/L, 24 h
T2 construct: HEK293T cells co-transfected with a full-length RORα gene and a luciferase reporter gene; expressed in transfected cells; host or cells: HEK293T
T2 sequence (P35398 1-523): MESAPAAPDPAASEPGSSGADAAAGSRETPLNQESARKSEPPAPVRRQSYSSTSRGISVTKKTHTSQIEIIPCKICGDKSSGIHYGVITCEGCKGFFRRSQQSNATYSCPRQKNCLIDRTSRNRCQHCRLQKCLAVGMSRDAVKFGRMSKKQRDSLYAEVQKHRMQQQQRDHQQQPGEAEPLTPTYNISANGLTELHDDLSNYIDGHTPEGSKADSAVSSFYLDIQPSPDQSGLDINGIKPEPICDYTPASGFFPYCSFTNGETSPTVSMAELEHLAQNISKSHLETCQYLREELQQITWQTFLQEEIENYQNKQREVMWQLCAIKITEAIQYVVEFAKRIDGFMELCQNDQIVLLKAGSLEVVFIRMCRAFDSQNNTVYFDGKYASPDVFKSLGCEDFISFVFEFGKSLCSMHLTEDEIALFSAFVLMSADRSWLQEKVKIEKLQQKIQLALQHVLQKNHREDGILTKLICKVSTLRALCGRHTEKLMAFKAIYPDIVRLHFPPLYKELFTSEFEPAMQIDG
Procedure: RNA from liver, periodontal tissues and cell samples was prepared as previously described. Total RNA (1 ug) was synthesized into cDNA using […] (Vazyme). mRNA expression levels were normalized to GAPDH. Relative expression levels and enrichment contents were calculated using the comparative Ct Method. Primer information is detailed in Data file S1.

[4] = ip, 10 mg/kg, 10 mg/kg IP, read-out: MRTInf_obs (mean retention time)
[5] = iv, 10 mg/kg, 10 mg/kg IV, read-out: MRTInf_obs

SMILES	dose dependence of the enhancing effect on the amplitude of BMAL1 [1]	fluctuation degree (amplitude) of bioluminescence intensity [1]	period or phase of the bioluminescence [1]	overall bioluminescence levels [1]	systemic toxicity (body weight changes) [2]	AUC/D ([3]; 10 mg/kg IP)	AUC/D ([3]; 10 mg/kg IV)	AUC ([3]; 10 mg/kg IP)	Cmax ([3]; 10 mg/kg IP)	Tmax ([3]; 10 mg/kg IP)	half-life ([3]; 10 mg/kg IP)	concentration at 8 h ([3]; 10 mg/kg IP)	AUC ([3]; 10 mg/kg IV)	Cmax ([3]; 10 mg/kg IV)	Tmax ([3]; 10 mg/kg IV)	half-life ([3]; 10 mg/kg IV)	bioavailability ([3]; 10 mg/kg)	MRT inf [3, 4]	MRT inf [3, 5]	luminescence intensity of G6Pase and FGF21 reporter genes (RORγ)	also measured
O=C(Nc1ccc(C(OCO[C@@H]2O[C@H](CO)[C@H](O)[C@H](O)[C@H]2O)(C(F)(F)F)C(F)(F)F)cc1)c1ccc(C(F)(F)F)cc1 [Gala-SR]	increases with the dose	further enhanced	neither SR1078 nor Gala-SR treatment induced any obvious alterations	superior efficacy than SR1078	reduced systematic toxicity	607.73 kg·ng·h/mL/mg	817.62 kg·ng·h/mL/mg	6080 ng·h/mL	1310 ng/mL	30 min	206 min	202 ng/mL	8180 ng·h/mL	4990 ng/mL	30 min	149 min	~74.3%	270 min	178 min	significantly enhanced the luminescence intensity	circadian rhythm amplitude, with β-glycosidase ([1]; Gala-SR + β-galactosidase (205 U/mg)): augmentation; circadian rhythm amplitude, with β-glycosidase inhibitor ([1]; Gala-SR + β-galactosidase inhibitor (26 mmol/L)): suppression; difference between Gala-SR and SR1078 in RORγ reporter luminescence (RORγ): no significant difference; activation of G6Pase and FGF21 transcription after RORα knockdown (RORα): markedly hampered the activation
O=C(Nc1ccc(C(O)(C(F)(F)F)C(F)(F)F)cc1)c1ccc(C(F)(F)F)cc1 [SR1078, reference compound]	difficult to further promote its efficacy	significant augmentation	neither SR1078 nor Gala-SR treatment induced any obvious alterations	significantly elevated	dose-dependent toxicity	190.962 kg·ng·h/mL/mg	254.24 kg·ng·h/mL/mg	1910 ng·h/mL	1810 ng/mL	30 min	58.2 min	2.96 ng/mL	2540 ng·h/mL	7130 ng/mL	30 min	58.8 min	~75.1%	71.4 min	29.2 min	significantly enhanced the luminescence intensity	MRTInf_obs (mean retention time) ([3]; 10 mg/kg IP, 10 mg/kg): 71.64 min; activation of G6Pase and FGF21 transcription after RORα knockdown (RORα): markedly hampered the activation
